System: MDA MB 231 cells
Experiment: In vivo study in mice, MDA MB 231 tumour growth
Parameters: species or system Athymic Nude female mice
Conditions: 25 mg/kg twice a day by oral gavage, 10 days
Method: The effect of Example 1 on tumor growth rate in mice was also investigated.
5×10^6 MDA MB 231 cells (obtained from Professor Eric Aboagye, Hammersmith Hospital; cell type: triple negative breast cancer) were resuspended in PBS, and 50 μl of cells/PBS was mixed with 50 μl of Matrigel to provide a total volume of 100 μL containing 50% Matrigel. The suspension was injected into the right flank in 16 Athymic Nude female mice. Mice were five to six weeks old and obtained from Charles Rivers Laboratories. All of the experiments were carried out under London Home Office license authority and London Home Office Ethics Committee guidelines. When the tumour mass reached 50 mm3, the animals were randomized (8 per group) and treated for 10 days with PBS solution (control group) or 25 mg/kg of Example 1 suspended in PBS twice a day by oral gavage. Tumor growth rates were analyzed by caliper measurements every day after the start of the treatment period with Example 1 (“NMTi”) or the control (“PBS”). Tumor volume was calculated according to the formula: […]. Weight of the mice was also measured every day after the start of the treatment period with Example 1 (“NMTi”) or the control (“PBS”). Mice were euthanised when the tumor size exceeded 15 mm in diameter in any direction.

weight change in the mice: No weight change
SMILES: Cc1c(CCOc2cc(Cl)ccc2-c2ccc3ncc(CCN)n3c2)c(C(=O)N(C)C)nn1C [Example Compound 1, 4-(2-{2-[3-(2-aminoethyl)imidazo[1,2-a]pyridin-6-yl]-5-chlorophenoxy}ethyl)-N,N,1,5-tetramethyl-1H-pyrazole-3-carboxamide]
tumour growth rate (vs PBS control): reduced

Reference: patent US12304909B2, “Compounds and their use in therapy” (IMPERIAL COLLEGE INNOVATIONS LIMITED, priority 2018, dated 2025)
